The results in this text go back to patent US6949648B2, “Condensed pyrazole derivatives, process for producing the same and use thereof” (Takeda Pharmaceutical Company Limited, priority 2000, dated 2005).

For orientation: IC50 means the point on the concentration scale where inhibition reaches its midpoint.

Data set [1] has as its target T1, human COX-1 (Homo sapiens, UniProt P23219).
T1 construct: made in house; host or cells: Sf-21 insect cells (recombinant baculovirus BAC-COX1, pFASTBAC1); microsome fraction
Briefly: Determination of COX-1 inhibitory activity (microsome fraction, chemiluminescence). The data set is classed as biochemical. Conditions: microsome fraction 40 μg, arachidonic acid, 37° C. 25 minutes preincubation; read-out: Repression rate IC50 (μM) COX-1. As for the experimental part:
A 1.8 kb DNA fragment containing human COX-1 cDNA (FASEB J., vol. 5 (9), p. 2304-2312 (1991)) prepared by the PCR method was inserted into plasmid pFASTBAC1 (CIBCOBRL) to obtain a plasmid pFBCOX1.
Using the plasmid pFBCOX1 and BAC-TO-BAC Baculovirus Expression System (GIBCOBRL), a virus stock BAC-COX1 of the recombinant baculovirus was prepared.
Sf-21 cells were inoculated in 125 mL of Sf-900 II SFM medium (GIBCOBRL) at a concentration of 1×10^6 cells/mL, and the medium was incubated at 27° C. for 24 hours. 0.75 mL of the virus stock BAC-COX1 of the recombinant baculovirus was added thereto, and the mixture was incubated further for 72 hours. The cells were separated from the medium by centrifugation (3000 rpm, 10 min), and washed with PBS twice. The cells were suspended in 10 mL of a Lysis buffer (0.1M Tris-HCl (pH 7.4), 5 mM EDTA), and were treated with a homogenizer (POLYTRON) three times at 20000 rpm for 20 seconds so that the cells were crushed. The supernatant obtained after centrifugation (2000 rpm, 10 minutes) was further centrifuged (40000 rpm, 45 minutes) to give a precipitate, which was resuspended in a Lysis buffer (0.1M Tris-HCl (pH 7.4), 5 mM EDTA), and the suspension was stored at −80° C.
Determination of COX-1 and COX-2 Inhibitory Activities
To a mixture of 20 μL of a reaction buffer previously concentrated 10 times (1M Tris-HCl (pH8.0), 50 mM EDTA, 1.0% Tween 20, 50 mM luminol, 100 μM hematin), 20 μL of the microsome fractions (COX-1: 40 μg, COX-2: 20 μg), and 55 μL of distilled water, a sample compound dissolved in DMF (5 μL) was added, and the mixture was left at 37° C. for 25 minutes. The reaction was started by the addition of 20 μM arachidonic acid (100 μL), and chemiluminescence amount during the 10-second period after the addition of arachidonic acid was determined by the use of Lumistar (BMG Lab technologies, GmbH). The inhibition rate was calculated, regarding that the enzyme activity when DMF ([…]) was added was 100%, and the enzyme activity when 4 mM flurbiprofen (5 μL) was added was 0%.

Data set [2] has as its system acetic acid induced rising and stretching. Kind of data set: Analgesic activity, acetic acid rising method. The data set is classed as in vivo, ICR-mice. As to conditions: po, 20 min; 10 mg/kg orally, 30 minutes before 0.6% acetic acid i.p.; number of rising and stretching in 20 minutes; read-out: Repression rate (%) Dosage 10 mg/kg. The method, boiled down: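 Male ICR mice (5 weeks, n=10/group) dosed orally; 30 min later injected i.p. with 0.6% acetic acid. Rising and stretching counted over 20 min; repression rate (%) from group mean counts versus controls.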

The subject of data set [3] is yeast-induced pyrexia. Briefly: Antipyretic activity in yeast-induced pyrexia. Conditions: 10 mg/kg orally; maximum difference in body temperature vs control over 6 hours. The data set is classed as in vivo, SD rats. In outline:
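Male SD rats, 7 weeks old (n=6), febrile 18 h after s.c. 15% yeast in saline (10 mL/kg), fasted; compound given orally at 5 mL/kg, vehicle to controls. Rectal temperature by thermistor hourly for 6 h; Δ (° C.) is maximum temperature difference versus control.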

The subject of data set [4] is gastric mucosa. Briefly: Disorder of gastric mucosa. The data set is classed as in vivo, SD rats. As to conditions: stomach, 300 mg/kg orally, fasted rats, 6 hours after dosing. As for the experimental part:
Disorder of Gastric Mucosa
Male SD origin male-rats (7 weeks old, CLEA Japan) were used. After 24 hours from the termination of food supply, samples were orally administered (5 mL/kg, b.w.). After 5.5 hours, Evan's Blue (0.5% Evan's Blue/saline) was injected intravenously (1 mL/rat) under no anesthesia. After 30 minutes from the shot, the stomach (with esophagus and duodenum of 1.5 to 2 cm length) was removed by celiotomy, and subsequently, the esophagus terminal was closed with a clip, and a 8 mL of 1% formalin solution was injected into the stomach through the duodenum, which was also closed with a clip after the injection. The stomach was left contacting with the 1% formalin solution for more than 10 minutes, and subsequently cut open from duodenum along the greater curvature of stomach. The stomach was washed and spread on a filter paper, and the length of each of the spots dyed by Evan's Blue (hemorrhagic portion: mucosal ablation to ulcer) was measured under a stereomicroscope, and the total length (mm) was calculated by a counter and recorded.

Data set [5] concerns adjuvant arthritis. Kind of data set: Anti-adjuvant-arthritic activity. The data set is classed as in vivo, SD rats. Conditions: 10 mg/kg orally once a day for 14 days; volume of left hind limb (not injected); day of reading not given. As for the experimental part:
Anti-Adjuvant-Arthritic Activity
Male SD origin male-rats (6 weeks old, CLEA Japan, 1 group: n=7) were used. The adjuvant arthritis method was conducted according to the method of Newbould B. B. et. al., (Brit. J. Pharmacol. Chemother., vol. 21, p. 127, 1963). Complete Freund's adjuvant (a suspension of killed tubercule bacillus in liquid paraffin at a concentration of 0.5%, 0.05 mL) was injected into the right hind limb footpad intracutaneouly to induce multiple arthritis. Samples were administered orally (10 mg/kg, b.w.), once a day for 14 days from the day before the injection day 0 to day 13. Volume of the left hind limb (not injected) was determined by the foot-volume measurement apparatus manufactured by Ugo Basile, on the day just before the adjuvant shot (Day 0), Day 10 and Day 14, and repression rate (%) was calculated comparing the values between the sample group and the control group.

Marks after values point to notes of the source that are not given here.

T1 sequence (P23219 24-599): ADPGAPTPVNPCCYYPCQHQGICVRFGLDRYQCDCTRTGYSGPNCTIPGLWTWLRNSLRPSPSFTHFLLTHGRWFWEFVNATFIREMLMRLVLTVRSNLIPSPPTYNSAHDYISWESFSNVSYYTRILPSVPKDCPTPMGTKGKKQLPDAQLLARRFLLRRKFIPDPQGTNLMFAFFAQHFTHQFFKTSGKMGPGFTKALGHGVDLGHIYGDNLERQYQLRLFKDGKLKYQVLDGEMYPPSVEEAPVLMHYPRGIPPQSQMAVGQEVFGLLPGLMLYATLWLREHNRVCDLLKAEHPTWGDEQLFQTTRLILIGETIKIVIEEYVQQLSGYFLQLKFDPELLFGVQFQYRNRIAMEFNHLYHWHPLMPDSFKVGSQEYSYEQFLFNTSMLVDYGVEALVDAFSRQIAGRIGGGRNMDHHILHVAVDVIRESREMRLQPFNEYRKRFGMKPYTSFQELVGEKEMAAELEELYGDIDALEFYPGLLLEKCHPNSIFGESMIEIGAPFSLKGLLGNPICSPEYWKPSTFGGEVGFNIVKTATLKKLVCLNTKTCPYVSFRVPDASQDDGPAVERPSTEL

Consider `O=c1c2ccccc2[nH]c2c1cnn2-c1ccccn1` [Example 2-159, 1-(2-Pyridinyl)-1,9-dihydro-4H-pyrazolo[3,4-b]quinolin-4-one], for which, in data set [1], the IC50 is 2.66 µM. Moreover, the inhibition in vivo at 10 mg/kg in data set [2] is 69%. For the same compound, the “Δ (° C.) Dosage 10 mg/kg” value in data set [3] is 1.8** ° C. Besides, in data set [4], the “Total length of dyed spots (mm)” value was 0 (300 mg/kg) mm.

Consider `CCCOc1c2ccccc2nc2c1c(C)nn2-c1ccccn1` [Example 2-17, 3-Methyl-4-propoxy-1-(2-pyridinyl)-1H-pyrazolo[3,4-b]quinoline], for which the IC50 in data set [1] came out at 7.28 µM. The inhibition in vivo at 10 mg/kg in data set [2] was 49%. For the same compound, the “Δ (° C.) Dosage 10 mg/kg” value in data set [3] is on record as 1.5** ° C. The “Repression rate (%) Dosage 10 mg/kg” value in data set [5] is reported as 61* %.

For `Cc1nn(-c2ccccn2)c2nc3ccccc3c(OC3CCCC3)c12` [Example 2-21, 4-Cyclopentyloxy-3-methyl-1-(2-pyridinyl)-1H-pyrazolo[3,4-b]quinoline], the IC50 in data set [1] worked out at 4.21 µM. For the same compound, the inhibition in vivo at 10 mg/kg in data set [2] turned out to be 56%. Further, the “Δ (° C.) Dosage 10 mg/kg” value in data set [3] is recorded as 1.8** ° C.

Take `CCCNc1c2ccccc2nc2c1c(C)nn2-c1ccccn1` [Example 2-6, N-[3-Methyl-1-(2-pyridinyl)-1H-pyrazolo[3,4-b]quinolin-4-yl]-N-propylamine]: the half-maximal inhibitory concentration (IC50) in data set [1] was determined as 21.7 µM. Further, the inhibition in vivo at 10 mg/kg in data set [2] worked out at 57%. For the same compound, in data set [3], the “Δ (° C.) Dosage 10 mg/kg” value is listed as 0.8** ° C.

As for `Cc1nn(-c2ccccn2)c2[nH]c3cccc(F)c3c(=O)c12.Cl` [Example 2-79, 5-Fluoro-3-methyl-1-(2-pyridinyl)-1,9-dihydro-4H-pyrazolo[3,4-b]quinolin-4-one hydrochloride], the IC50 in data set [1] is 7.8 µM. For the same compound, the inhibition in vivo at 10 mg/kg in data set [2] stood at 38%. Also, in data set [3], the “Δ (° C.) Dosage 10 mg/kg” value is given as 1.4** ° C. In data set [4], the “Total length of dyed spots (mm)” value is 0 (300 mg/kg) mm.
